The values below come from patent US20240116985A1, “STAPLED PEPTIDES AND METHODS THEREOF” (priority 2020, published 2024).

One series in a line: CHI Log D procedure. The format is physicochemical.
Series [1] addresses T1, full-length beta-Catenin (Uniprot ID P35222) (Homo sapiens, UniProt P35222).
T1 construct: 10 nM full-length beta-Catenin (Uniprot ID P35222)
T1 sequence (P35222 1-781): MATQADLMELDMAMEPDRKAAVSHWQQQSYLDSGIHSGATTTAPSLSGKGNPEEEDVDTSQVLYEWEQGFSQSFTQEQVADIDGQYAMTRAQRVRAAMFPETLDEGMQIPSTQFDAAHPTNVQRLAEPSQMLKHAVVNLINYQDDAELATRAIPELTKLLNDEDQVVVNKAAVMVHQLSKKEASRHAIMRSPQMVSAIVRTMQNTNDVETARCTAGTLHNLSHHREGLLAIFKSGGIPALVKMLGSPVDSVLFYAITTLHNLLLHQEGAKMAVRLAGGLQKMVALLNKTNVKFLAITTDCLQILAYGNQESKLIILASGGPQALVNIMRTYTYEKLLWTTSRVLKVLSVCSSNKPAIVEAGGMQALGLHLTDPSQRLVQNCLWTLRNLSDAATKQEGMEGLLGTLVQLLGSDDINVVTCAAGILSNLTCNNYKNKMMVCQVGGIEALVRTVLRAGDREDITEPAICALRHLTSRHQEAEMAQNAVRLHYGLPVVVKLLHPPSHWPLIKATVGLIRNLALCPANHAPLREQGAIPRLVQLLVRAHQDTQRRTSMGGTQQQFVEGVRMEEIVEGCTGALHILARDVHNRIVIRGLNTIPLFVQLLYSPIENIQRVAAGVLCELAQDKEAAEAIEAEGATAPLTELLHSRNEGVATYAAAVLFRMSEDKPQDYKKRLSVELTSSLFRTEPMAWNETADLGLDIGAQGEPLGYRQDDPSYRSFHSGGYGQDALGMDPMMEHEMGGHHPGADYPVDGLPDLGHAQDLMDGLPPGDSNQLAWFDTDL
The series can be described thus: Fluorescence polarization IC50 (beta-catenin / 5FAM-TCF4 10-53 competition). It is filed as binding. Conditions: for IC50: FP EC50 (nM). A general note: Fluorescence polarisation rises when a labelled molecule tumbles more slowly, as on binding a larger partner.

Setting [2] is: fluorescence polarization, read-out: beta-Catenin FP IC50.

The term chromatographic logD denotes lipophilicity estimated from chromatographic retention. A low value points to lower lipophilicity. What is called IC50 is the concentration at which inhibition is half-maximal. Low readings indicate inhibition by little substance, high ones a need for much substance. Usually logD stands for the decadic logarithm of the distribution of all forms, ionised or not, between an organic phase and buffer at a given pH.

The structures appear in SMILES notation. pIC50: −log10 of the molar value. Read-outs that look alike come from different tables or passages of the source.

As to `CC(=O)N1CCC[C@]12CC=CCCCC1(CCCC=CCCCCCC[C@@](C)(C(=O)N[C@@H](Cc3ccccc3)C(=O)N[C@@H](Cc3csc4ccccc34)C(=O)N[C@@H](CCC(N)=O)C(N)=O)NC(=O)[C@H](CCC(N)=O)NC(=O)[C@H](Cc3ccccc3)NC(=O)[C@H](C)NC(=O)[C@H](C)NC(=O)[C@H](CCC(=O)O)NC(=O)[C@H](CC(=O)O)NC1=O)NC(=O)[C@H](CCCCNC(=O)CN=[N+]=[N-])NC(=O)[C@H](CC(=O)O)NC2=O` (stereo partly drawn) [I-589, Ac-PL3-Asp-[AzAc]Lys-B5-Asp-Glu-Ala-Ala-Phe-Gln-S8-Phe-BztA-Gln-NH2], in the series “CHI Log D procedure” (pH 7.4), the “CHI Log D” value is reported as 2.119. Besides, in series [1] (read-out: FP EC50), the pIC50 is 7.32.

On to `CC(=O)N1CCC[C@]12CC=CCCCC1(CCCC=CCCCCCC[C@@](C)(C(=O)N[C@@H](Cc3ccccc3)C(=O)N[C@@H](Cc3csc4ccccc34)C(=O)N[C@@H](CCC(N)=O)C(N)=O)NC(=O)[C@H](CCC(N)=O)NC(=O)[C@H](Cc3ccccc3)NC(=O)[C@H](C)NC(=O)[C@H](C)NC(=O)[C@H](CCC(=O)O)NC(=O)[C@H](CC(=O)O)NC1=O)NC(=O)[C@H](CCCCNC(=O)CN=[N+]=[N-])NC(=O)[C@H](CC(=O)O)NC2=O` (stereo partly drawn) [I-590, Ac-PL3-Asp-[AzAc]Lys-B5-Asp-Glu-Ala-Ala-Phe-Gln-S8-Phe-BztA-Gln-NH2], for which the “CHI Log D” value in “CHI Log D procedure” (pH 7.4) was 2.152. In series [1] (read-out: FP EC50), the pIC50 was 7.35.

Turning to `CC[C@H](C)[C@@H]1NC(=O)[C@H](CC(=O)O)NC(=O)[C@]2(CC=CCCCC3(CCCC=CCCCCCC[C@@](C)(C(=O)N[C@@H](Cc4ccccc4)C(=O)N[C@@H](Cc4csc5ccccc45)C(=O)N[C@@H](CCC(N)=O)C(N)=O)NC(=O)[C@H](CCC(N)=O)NC(=O)[C@H](Cc4ccccc4)NC(=O)[C@H](C)NC(=O)[C@H](CCCCNC(=O)CN=[N+]=[N-])NC(=O)[C@H](CCC(=O)O)NC(=O)[C@H](CC(=O)O)NC3=O)NC1=O)CCCN2C(C)=O` (stereo partly drawn) [I-591, Ac-PL3-Asp-Ile-B5-Asp-Glu-[AzAc]Lys-Ala-Phe-Gln-S8-Phe-BztA-Gln-NH2], in the series “CHI Log D procedure” (pH 7.4), the “CHI Log D” value amounted to 2.348. In addition, the pIC50 in series [1] (read-out: FP EC50) was 7.19.

Regarding `CC[C@H](C)[C@@H]1NC(=O)[C@H](CC(=O)O)NC(=O)[C@]2(CC=CCCCC3(CCCC=CCCCCCC[C@@](C)(C(=O)N[C@@H](Cc4ccccc4)C(=O)N[C@@H](Cc4csc5ccccc45)C(=O)N[C@@H](CCC(N)=O)C(N)=O)NC(=O)[C@H](CCC(N)=O)NC(=O)[C@H](Cc4ccccc4)NC(=O)[C@H](C)NC(=O)[C@H](CCCCNC(=O)CN=[N+]=[N-])NC(=O)[C@H](CCC(=O)O)NC(=O)[C@H](CC(=O)O)NC3=O)NC1=O)CCCN2C(C)=O` (stereo partly drawn) [I-592, Ac-PL3-Asp-Ile-B5-Asp-Glu-[AzAc]Lys-Ala-Phe-Gln-S8-Phe-BztA-Gln-NH2], the “CHI Log D” value in “CHI Log D procedure” (pH 7.4) amounted to 2.414. In series [1] (read-out: FP EC50), the pIC50 was 7.62.

With `CC[C@H](C)[C@@H]1NC(=O)[C@H](CC(=O)O)NC(=O)[C@]2(CC=CCCCC3(CCCC=CCCCCCC[C@@](C)(C(=O)N[C@@H](Cc4ccccc4)C(=O)N[C@@H](Cc4csc5ccccc45)C(=O)N[C@@H](CCC(N)=O)C(N)=O)NC(=O)[C@H](CCC(N)=O)NC(=O)[C@H](Cc4ccccc4)NC(=O)[C@H](CCCCNC(=O)CN=[N+]=[N-])NC(=O)[C@H](C)NC(=O)[C@H](CCC(=O)O)NC(=O)[C@H](CC(=O)O)NC3=O)NC1=O)CCCN2C(C)=O` (stereo partly drawn) [I-593, Ac-PL3-Asp-Ile-B5-Asp-Glu-Ala-[AzAc]Lys-Phe-Gln-S8-Phe-BztA-Gln-NH2], the chromatographic logD in the series “CHI Log D procedure” (pH 7.4) was 2.12. The same molecule registered an IC50 in series [1] of 68 nM.

In the series “CHI Log D procedure” (pH 7.4), `CC[C@H](C)[C@@H]1NC(=O)[C@H](CC(=O)O)NC(=O)[C@]2(CC=CCCCC3(CCCC=CCCCCCC[C@@](C)(C(=O)N[C@@H](Cc4ccccc4)C(=O)N[C@@H](Cc4csc5ccccc45)C(=O)N[C@@H](CCC(N)=O)C(N)=O)NC(=O)[C@H](CCCCNC(=O)CN=[N+]=[N-])NC(=O)[C@H](Cc4ccccc4)NC(=O)[C@H](C)NC(=O)[C@H](C)NC(=O)[C@H](CCC(=O)O)NC(=O)[C@H](CC(=O)O)NC3=O)NC1=O)CCCN2C(C)=O` (stereo partly drawn) [I-594, Ac-PL3-Asp-Ile-B5-Asp-Glu-Ala-Ala-Phe-[AzAc]Lys-S8-Phe-BztA-Gln-NH2] registered a chromatographic logD of 2.61. In series [1], this molecule returned an IC50 of 87 nM.

`CC[C@H](C)[C@@H]1NC(=O)[C@H](CC(=O)O)NC(=O)[C@]2(CC=CCCCC3(CCCC=CCCCCCC[C@@](C)(C(=O)N[C@@H](Cc4ccccc4)C(=O)N[C@@H](Cc4csc5ccccc45)C(=O)N[C@@H](CCCCNC(=O)CN=[N+]=[N-])C(N)=O)NC(=O)[C@H](CCC(N)=O)NC(=O)[C@H](Cc4ccccc4)NC(=O)[C@H](C)NC(=O)[C@H](C)NC(=O)[C@H](CCC(=O)O)NC(=O)[C@H](CC(=O)O)NC3=O)NC1=O)CCCN2C(C)=O` (stereo partly drawn) [I-595, Ac-PL3-Asp-Ile-B5-Asp-Glu-Ala-Ala-Phe-Gln-S8-Phe-BztA-[AzAc]Lys-NH2]: the chromatographic logD in “CHI Log D procedure” (pH 7.4) turned out to be 2.64. Further, the IC50 in series [1] is 57 nM.

Take `CC[C@H](C)[C@@H]1NC(=O)[C@H](CC(=O)O)NC(=O)[C@]2(CC=CCCCC3(CCCC=CCCCCCC[C@@](C)(C(=O)N[C@@H](Cc4ccccc4)C(=O)N[C@@H](Cc4csc5ccccc45)C(=O)N[C@@H](CCC(N)=O)C(=O)N[C@@H](CCCCNC(=O)CN=[N+]=[N-])C(N)=O)NC(=O)[C@H](CCC(N)=O)NC(=O)[C@H](Cc4ccccc4)NC(=O)[C@H](C)NC(=O)[C@H](C)NC(=O)[C@H](CCC(=O)O)NC(=O)[C@H](CC(=O)O)NC3=O)NC1=O)CCCN2C(C)=O` (stereo partly drawn) [I-596, Ac-PL3-Asp-Ile-B5-Asp-Glu-Ala-Ala-Phe-Gln-S8-Phe-BztA-Gln-[AzAc]Lys-NH2]: the “CHI Log D” value in “CHI Log D procedure” (pH 7.4) is given as 2.373. Besides, the pIC50 in series [1] (read-out: FP EC50) was 6.95.

Consider `CC[C@H](C)[C@@H]1NC(=O)[C@H](CC(=O)O)NC(=O)[C@]2(CC=CCCCC3(CCCC=CCCCCCC[C@@](C)(C(=O)N[C@@H](Cc4ccccc4)C(=O)N[C@@H](Cc4csc5ccccc45)C(=O)N[C@@H](CCC(N)=O)C(=O)N[C@@H](CCCCNC(=O)CN=[N+]=[N-])C(N)=O)NC(=O)[C@H](CCC(N)=O)NC(=O)[C@H](Cc4ccccc4)NC(=O)[C@H](C)NC(=O)[C@H](C)NC(=O)[C@H](CCC(=O)O)NC(=O)[C@H](CC(=O)O)NC3=O)NC1=O)CCCN2C(C)=O` (stereo partly drawn) [I-597, Ac-PL3-Asp-Ile-B5-Asp-Glu-Ala-Ala-Phe-Gln-S8-Phe-BztA-Gln-[AzAc]Lys-NH2], for which the “CHI Log D” value in “CHI Log D procedure” (pH 7.4) stood at 2.39. Moreover, the pIC50 in series [1] (read-out: FP EC50) is 7.12.

`CC[C@H](C)[C@@H]1NC(=O)[C@H](CC(=O)O)NC(=O)[C@]2(CC=CCCCC3(CCCC=CCCCCCC[C@@](C)(C(=O)N[C@@H](Cc4ccccc4)C(=O)N[C@@H](Cc4csc5ccccc45)C(=O)N[C@@H](CCC(N)=O)C(N)=O)NC(=O)[C@H](CCC(N)=O)NC(=O)[C@H](Cc4ccccc4)NC(=O)[C@H](C)NC(=O)[C@H](C)NC(=O)[C@H](CCC(=O)O)NC(=O)[C@H](CC(=O)O)NC3=O)NC1=O)CCCN2C(=O)CCc1ccccn1` (stereo partly drawn) [I-602, 2PyPrpc-PL3-Asp-Ile-B5-Asp-Glu-Ala-Ala-Phe-Gln-S8-Phe-BztA-Gln-NH2] had a chromatographic logD in the series “CHI Log D procedure” (pH 7.4, CHI Log D) of 3.15. The pIC50 in series [1] (setting [2]) was 5.50.

Regarding `CC[C@H](C)[C@@H]1NC(=O)[C@H](CC(=O)O)NC(=O)[C@]2(CC=CCCCC3(CCCC=CCCCCCC[C@@](C)(C(=O)N[C@@H](Cc4ccccc4)C(=O)N[C@@H](Cc4csc5ccccc45)C(=O)N[C@@H](CCC(N)=O)C(N)=O)NC(=O)[C@H](CCC(N)=O)NC(=O)[C@H](Cc4ccccc4)NC(=O)[C@H](C)NC(=O)[C@H](C)NC(=O)[C@H](CN(CC)CC(=O)O)NC(=O)[C@H](CC(=O)O)NC3=O)NC1=O)CCCN2C(C)=O` (stereo partly drawn) [I-608, Ac-PL3-Asp-Ile-B5-Asp-EtGa-Ala-Ala-Phe-Gln-S8-Phe-BztA-Gln-NH2], in “CHI Log D procedure” (pH 7.4), the “CHI Log D” value is 2.506. The logD in “CHI Log D procedure” (pH 7.4) was 2.5. Moreover, the pIC50 in series [1] (setting [2]), in series [1] (read-out: FP EC50) and in series [1] (read-out: bCat FP IC50) was 6.68 in each case.

Take `CC[C@H](C)[C@@H]1NC(=O)[C@H](CC(=O)O)NC(=O)[C@]2(CC=CCCCC3(CCCC=CCCCCCC[C@@](C)(C(=O)N[C@@H](Cc4ccccc4)C(=O)N[C@@H](Cc4csc5ccccc45)C(=O)N[C@@H](CCC(N)=O)C(N)=O)NC(=O)[C@H](CCC(N)=O)NC(=O)[C@H](Cc4ccccc4)NC(=O)[C@H](C)NC(=O)[C@H](C)NC(=O)[C@H](CN(CC)CC(=O)O)NC(=O)[C@H](CC(=O)O)NC3=O)NC1=O)CCCN2C(C)=O` (stereo partly drawn) [I-609, Ac-PL3-Asp-Ile-B5-Asp-EtGa-Ala-Ala-Phe-Gln-S8-Phe-BztA-Gln-NH2]: the “CHI Log D” value in the series “CHI Log D procedure” (pH 7.4) was determined as 2.534. Further, the log distribution coefficient (logD) in the series “CHI Log D procedure” (pH 7.4) is 2.5. The pIC50 in series [1] (setting [2]), in series [1] (read-out: FP EC50) and in series [1] (read-out: bCat FP IC50) was 7.10 throughout.
